In BindingDB's records for patent US10730849 (Merck Sharp & Dohme Corp., 2020) one finds EC50 data, which are given here for one compound.

In the assay the target is T1, Stimulator of interferon genes protein [R71H,G230A,H232R,R293Q] (Homo sapiens, UniProt Q86WV6, G230A/H232R/R293Q/R71H).
T1 construct: gene STING1
The assay can be described thus: STING Biochemical [3H]cGAMP Competition Assay. An excerpt: The binding assay employs STING receptor obtained from Hi-Five cell membranes overexpressing full-length HAQ STING prepared in-house and tritiated cGAMP ligand also purified in-house.

The structures appear in SMILES notation.

T1 sequence (Q86WV6 whole entry R71H/G230A/H232R/R293Q, looked up): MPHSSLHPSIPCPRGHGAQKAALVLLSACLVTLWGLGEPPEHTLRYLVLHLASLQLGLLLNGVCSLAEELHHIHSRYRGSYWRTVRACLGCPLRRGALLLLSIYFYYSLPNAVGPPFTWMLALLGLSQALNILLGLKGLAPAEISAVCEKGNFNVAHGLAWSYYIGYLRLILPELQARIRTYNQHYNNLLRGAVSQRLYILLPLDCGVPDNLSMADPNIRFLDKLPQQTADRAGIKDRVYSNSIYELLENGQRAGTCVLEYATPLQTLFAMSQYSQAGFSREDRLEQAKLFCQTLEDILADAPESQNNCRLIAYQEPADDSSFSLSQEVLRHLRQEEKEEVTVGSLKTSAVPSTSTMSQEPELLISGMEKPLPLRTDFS

In general, EC50 refers to the concentration at which the effect is half-maximal. A high value points to a less potent agent. `COc1cc2cc(C(=O)CCC(=O)OC(C)(C)C)sc2cc1OC` [US10730849, Example 12] had a 50% effective concentration (EC50) of 5.99 µM.
